Assay results as given in ChEMBL document CHEMBL1201862, “PubChem BioAssay data set” (2004).
The source made the active and inactive calls.

How the values were obtained:
Vero = assay: West Nile virus antiviral activity, cell-based, CPE readout (AID 1621); assay type: functional; settings: Chlorocebus sabaeus
[1] = target: T1, Ubiquitin-conjugating enzyme E2 N (Homo sapiens, UniProt P61088); assay type: functional;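 also: Dose-response confirmation in a TR-FRET assay detecting UBC13-driven polyubiquitin chain formation, inhibition measured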
T1 sequence (P61088 whole entry): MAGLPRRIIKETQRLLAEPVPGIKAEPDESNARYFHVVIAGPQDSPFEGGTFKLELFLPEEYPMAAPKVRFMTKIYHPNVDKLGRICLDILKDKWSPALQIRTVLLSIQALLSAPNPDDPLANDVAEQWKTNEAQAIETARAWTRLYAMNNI

[2] = target: Peroxisome proliferator-activated receptor gamma/Nuclear receptor coactivator 2 (Homo sapiens, UniProt P37231); assay type: functional;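 also: agonist potency for raising coactivator recruitment to the receptor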
[3] = target: Peroxisome proliferator-activated receptor gamma/Nuclear receptor coactivator 1 (Homo sapiens, UniProt P37231); assay type: functional;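 also: agonist potency as compounds enhance coactivator SRC-1 recruitment to PPARgamma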
[4] = target: Peroxisome proliferator-activated receptor gamma/Nuclear receptor coactivator 3 (Homo sapiens, UniProt P37231); assay type: functional;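 also: agonist potency for raising coactivator recruitment to the receptor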
[5] = target: Luciferin 4-monooxygenase (Photinus pyralis, UniProt P08659); assay: Counter Screen for Luciferase-based Assay Positives. [Related pubchem assays: 620, 618, 411 ]
HT-1080 = assay: cytotoxicity in HT1080 fibrosarcoma cells, cell-based, fluorescence readout (AID 620); assay type: functional; settings: Homo sapiens
[6] = target: T2, RNA-binding protein pos-1 (Caenorhabditis elegans, UniProt G5EF15); assay: inhibitors of POS-1/mex-3 RNA binding, dose response, biochemical, fluorescence polarization (AID 1964);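 also: purified POS-1 fused to maltose binding protein made in E. coli; potency of compounds blocking POS-1 binding to fluorescent RNA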
T2 sequence (G5EF15 whole entry): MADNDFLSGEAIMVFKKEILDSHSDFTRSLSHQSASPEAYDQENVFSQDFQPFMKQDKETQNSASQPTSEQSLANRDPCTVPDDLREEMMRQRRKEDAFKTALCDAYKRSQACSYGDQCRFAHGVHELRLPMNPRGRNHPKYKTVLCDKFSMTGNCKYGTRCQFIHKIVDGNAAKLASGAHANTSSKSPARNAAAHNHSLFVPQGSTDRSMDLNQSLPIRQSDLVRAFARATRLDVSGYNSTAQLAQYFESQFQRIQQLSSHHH

[7] = target: T3, Zinc finger protein mex-5 (Caenorhabditis elegans, UniProt Q9XUB2); assay: MEX-5/TCR-2 RNA interaction inhibitors, dose response, biochemical, C. elegans, fluorescence polarization (AID 1960)
T3 sequence (Q9XUB2 whole entry): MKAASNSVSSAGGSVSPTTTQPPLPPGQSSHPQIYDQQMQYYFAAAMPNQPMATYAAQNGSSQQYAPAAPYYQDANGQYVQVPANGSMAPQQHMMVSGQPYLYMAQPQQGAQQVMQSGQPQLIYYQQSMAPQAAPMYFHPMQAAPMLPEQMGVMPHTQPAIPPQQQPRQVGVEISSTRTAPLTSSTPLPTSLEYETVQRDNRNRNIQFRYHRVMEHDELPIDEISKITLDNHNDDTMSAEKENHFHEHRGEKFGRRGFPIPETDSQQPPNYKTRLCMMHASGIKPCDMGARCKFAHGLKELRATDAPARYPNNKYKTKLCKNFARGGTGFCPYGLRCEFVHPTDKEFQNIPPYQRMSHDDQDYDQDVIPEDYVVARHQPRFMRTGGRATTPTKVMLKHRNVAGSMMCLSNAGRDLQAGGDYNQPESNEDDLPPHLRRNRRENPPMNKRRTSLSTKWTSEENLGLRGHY

[8] = target: T4, Mannose-6-phosphate isomerase (Homo sapiens, UniProt P34949); assay: inhibitors of human PMI, primary screen, biochemical, fluorescence intensity, coupled assay (AID 1209)
T4 sequence (P34949 whole entry): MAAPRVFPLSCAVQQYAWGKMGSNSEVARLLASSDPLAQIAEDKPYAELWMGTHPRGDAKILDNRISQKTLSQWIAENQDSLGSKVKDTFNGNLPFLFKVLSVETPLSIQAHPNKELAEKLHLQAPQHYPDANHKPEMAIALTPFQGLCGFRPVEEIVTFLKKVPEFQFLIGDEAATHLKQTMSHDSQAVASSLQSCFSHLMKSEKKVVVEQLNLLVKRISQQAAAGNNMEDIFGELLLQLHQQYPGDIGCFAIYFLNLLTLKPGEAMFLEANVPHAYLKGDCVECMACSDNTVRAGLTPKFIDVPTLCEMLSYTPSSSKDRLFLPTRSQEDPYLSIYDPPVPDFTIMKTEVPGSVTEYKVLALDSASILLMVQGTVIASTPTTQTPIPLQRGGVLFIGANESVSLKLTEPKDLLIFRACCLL

Protein Tat = Protein Tat (Human immunodeficiency virus type 1 group M subtype B (isolate HXB2)(HIV-1), UniProt P04608); assay type: functional;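 also: tat binding to TAR RNA read out by fluorescence polarization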
[9] = A Cell Based Secondary Assay To Explore Cytotoxicity of Compounds that Sensitize Mycobacterium Tuberculosis to Beta-Lactam Antibiotics.; assay type: functional
[10] = target: T5, Neuropeptide Y receptor type 1 (Homo sapiens, UniProt P25929); assay type: functional;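 also: HEK293 cells with a CNG channel challenged with NPY then isoproterenol; potency as antagonist that reverses NPY suppression of cAMP signal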
T5 sequence (P25929 whole entry): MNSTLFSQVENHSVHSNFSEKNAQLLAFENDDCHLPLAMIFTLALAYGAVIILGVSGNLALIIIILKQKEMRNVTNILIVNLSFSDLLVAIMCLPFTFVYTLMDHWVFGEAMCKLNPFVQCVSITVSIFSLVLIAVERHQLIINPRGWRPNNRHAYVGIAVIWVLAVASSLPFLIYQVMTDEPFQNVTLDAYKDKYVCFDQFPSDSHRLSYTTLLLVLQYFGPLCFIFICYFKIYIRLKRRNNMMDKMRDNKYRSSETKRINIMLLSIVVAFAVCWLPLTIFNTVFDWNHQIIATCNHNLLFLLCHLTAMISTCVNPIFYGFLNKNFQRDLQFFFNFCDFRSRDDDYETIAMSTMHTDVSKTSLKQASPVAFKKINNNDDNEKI

[11] = target: T6, Neuropeptide Y receptor type 2 (Homo sapiens, UniProt P49146); assay type: functional, cell-based;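 also: HEK293 cells expressing the receptor and a CNG channel; stimulus was NPY near EC95 followed by isoproterenol to raise cAMP; antagonist potency measured as restoring cAMP signal that NPY suppresses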
T6 sequence (P49146 whole entry): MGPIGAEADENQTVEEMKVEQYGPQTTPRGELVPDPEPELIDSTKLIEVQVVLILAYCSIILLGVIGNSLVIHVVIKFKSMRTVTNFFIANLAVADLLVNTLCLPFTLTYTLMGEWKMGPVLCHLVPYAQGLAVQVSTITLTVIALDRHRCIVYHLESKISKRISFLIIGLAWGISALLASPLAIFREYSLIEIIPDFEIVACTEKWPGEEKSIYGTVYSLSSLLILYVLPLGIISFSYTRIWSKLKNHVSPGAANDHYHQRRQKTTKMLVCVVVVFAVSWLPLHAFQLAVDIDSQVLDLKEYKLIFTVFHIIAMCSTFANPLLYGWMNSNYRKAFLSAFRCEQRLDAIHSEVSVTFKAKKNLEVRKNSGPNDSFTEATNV

[12] = inhibitors of Bluetongue virus cytopathic effect, confirmation, arbovirus, BSR cells (AID 1250); assay type: functional;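 also: protection from viral cytopathic effect measured as cell viability by ATP luminescence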
[13] = Concentration-dependent survival of SW480 colon cancer line, luminescence detection with CellTiter-Glo, half-maximal inhibitory concentration (AID 1117338); assay type: functional
[14] = RKO cell viability reduction, dose response, CellTiter-Glo luminescence (AID 1117322); assay type: functional
[15] = cytotoxicity toward HCT116 cells – cell-based, CellTiter-Glo luminescence, IC50, dose response (AID 1117332); assay type: functional; settings: HCT-116
[16] = SNU-C1 cell viability reduction, dose response, CellTiter-Glo luminescence (AID 1117323); assay type: functional, cell-based
[17] = cytotoxicity toward Colo320 cells – cell-based, CellTiter-Glo luminescence, IC50, dose response (AID 1117334); assay type: functional; settings: COLO 320
[18] = cytotoxicity toward HT-29 cells – cell-based, CellTiter-Glo luminescence, IC50, dose response (AID 1117330); assay type: functional
[19] = CellTiter-Glo luminescent dose response of DLD-1 viability loss (AID 1117352); assay type: functional
[20] = HCT116 cell viability decrease, GSK3B pretreatment – CellTiter-Glo, IC50, dose response (AID 1117339); assay type: functional; settings: HCT-116
[21] = target: Aryl hydrocarbon receptor (Homo sapiens, UniProt P35869); settings: Potency;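 also: confirmatory quantitative high-throughput screen measuring activation of the AhR signaling pathway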
[22] = target: G-protein coupled receptor 55 (Homo sapiens, UniProt Q9Y2T6); assay: GPR55 agonists via beta-arrestin recruitment, primary screen, imaging, U2OS cells, beta-arrestin-GFP redistribution (AID 1961); assay type: functional
[23] = target: Mitogen-activated protein kinase 10 (Homo sapiens, UniProt P53779); assay: Dose response biochemical screening assay for inhibitors of c-Jun N-Terminal Kinase 3 (JNK3). [Related pubchem assays: 746 ]
[24] = inhibitors of Vif binding to APOBEC3G peptide, primary screen, biochemical, TR-FRET, GST-Vif 1-94, biotin-A3G peptide, dose response retest (AID 1117319); assay type: functional;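 also: TR-FRET signal of purified GST-Vif binding a biotinylated A3G peptide; inhibitors lower the FRET signal by blocking Vif and A3G binding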
[25] = growth suppression of PTEN-null colon cells, dose response, cell-based, HCT116 PTEN knockout (AID 1047); assay type: functional;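 also: HCT116 colon tumor cells with PTEN knocked out; cells exposed to compound for 60 hours before readout; potency for loss of cell viability measured by luminescence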
[26] = target: Protein-tyrosine kinase 2-beta (Homo sapiens, UniProt Q14289);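 also: potency of inhibitors of PYK2 kinase phosphorylation of poly-GT substrate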
[27] = growth suppression of beta-catenin-knockout colon cells, dose response, cell-based, HCT116, human colon tumor (AID 1045); assay type: functional;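 also: HCT116 colon tumor cells with beta catenin knocked out; cells exposed to compound for 60 hours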
[28] = target: Heat shock protein HSP 90-alpha (Homo sapiens, UniProt P07900); assay type: functional, organism-based
NS3 = NS3 (Hepatitis C virus, UniProt A3EZJ3); assay: PubChem AID 2173; design: species or system Hepacivirus hominis
Chain of NS3 (A3EZJ3 whole entry): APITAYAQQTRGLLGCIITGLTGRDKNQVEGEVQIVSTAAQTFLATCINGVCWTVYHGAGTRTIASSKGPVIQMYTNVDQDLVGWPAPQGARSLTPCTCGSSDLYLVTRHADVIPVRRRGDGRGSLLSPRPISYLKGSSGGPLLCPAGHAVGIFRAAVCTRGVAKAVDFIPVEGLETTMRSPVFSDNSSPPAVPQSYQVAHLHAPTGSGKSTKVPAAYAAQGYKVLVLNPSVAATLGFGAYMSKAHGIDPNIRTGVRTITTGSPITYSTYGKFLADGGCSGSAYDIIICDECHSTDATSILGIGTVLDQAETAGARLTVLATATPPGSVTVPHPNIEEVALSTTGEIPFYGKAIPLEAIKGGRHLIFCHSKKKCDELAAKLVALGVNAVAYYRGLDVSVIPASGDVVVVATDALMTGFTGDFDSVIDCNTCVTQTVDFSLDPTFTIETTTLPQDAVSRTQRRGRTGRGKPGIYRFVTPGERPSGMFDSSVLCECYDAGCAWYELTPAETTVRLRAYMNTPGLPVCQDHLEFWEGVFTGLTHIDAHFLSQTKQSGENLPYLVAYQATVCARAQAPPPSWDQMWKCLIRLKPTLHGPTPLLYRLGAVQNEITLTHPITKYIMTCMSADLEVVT

Chain of Protein Tat (P04608 whole entry): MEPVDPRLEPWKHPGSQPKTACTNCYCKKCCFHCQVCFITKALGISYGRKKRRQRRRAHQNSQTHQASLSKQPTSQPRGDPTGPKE
Chain of Mitogen-activated protein kinase 10 (P53779 whole entry): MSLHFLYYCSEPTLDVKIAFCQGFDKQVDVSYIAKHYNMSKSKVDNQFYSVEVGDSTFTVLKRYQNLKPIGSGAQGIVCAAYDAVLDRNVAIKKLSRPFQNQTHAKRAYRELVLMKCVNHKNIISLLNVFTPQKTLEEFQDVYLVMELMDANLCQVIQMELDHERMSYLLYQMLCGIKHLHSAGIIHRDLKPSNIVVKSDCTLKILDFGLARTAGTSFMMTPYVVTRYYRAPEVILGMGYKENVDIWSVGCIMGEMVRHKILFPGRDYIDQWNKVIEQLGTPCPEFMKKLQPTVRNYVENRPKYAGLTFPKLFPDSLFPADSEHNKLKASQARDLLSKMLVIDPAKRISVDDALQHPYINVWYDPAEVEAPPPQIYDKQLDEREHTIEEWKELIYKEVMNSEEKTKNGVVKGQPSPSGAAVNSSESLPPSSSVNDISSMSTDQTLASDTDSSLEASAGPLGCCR
Chain of Peroxisome proliferator-activated receptor gamma/Nuclear receptor coactivator 1 (P37231 whole entry): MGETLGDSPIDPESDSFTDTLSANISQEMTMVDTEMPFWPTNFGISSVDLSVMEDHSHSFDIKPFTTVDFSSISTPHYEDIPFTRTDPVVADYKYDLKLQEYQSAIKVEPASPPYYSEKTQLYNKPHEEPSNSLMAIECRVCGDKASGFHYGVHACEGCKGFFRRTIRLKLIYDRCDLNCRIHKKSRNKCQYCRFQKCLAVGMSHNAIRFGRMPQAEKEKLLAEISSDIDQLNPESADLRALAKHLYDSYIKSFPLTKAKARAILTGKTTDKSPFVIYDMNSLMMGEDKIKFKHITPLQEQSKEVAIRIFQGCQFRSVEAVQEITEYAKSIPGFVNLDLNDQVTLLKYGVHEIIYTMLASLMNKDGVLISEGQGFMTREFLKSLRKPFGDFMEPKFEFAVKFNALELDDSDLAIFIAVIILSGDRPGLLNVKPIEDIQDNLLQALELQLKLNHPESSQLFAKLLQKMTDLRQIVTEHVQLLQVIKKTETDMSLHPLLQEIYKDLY
Chain of Peroxisome proliferator-activated receptor gamma/Nuclear receptor coactivator 1 (Q15788 whole entry, further chain): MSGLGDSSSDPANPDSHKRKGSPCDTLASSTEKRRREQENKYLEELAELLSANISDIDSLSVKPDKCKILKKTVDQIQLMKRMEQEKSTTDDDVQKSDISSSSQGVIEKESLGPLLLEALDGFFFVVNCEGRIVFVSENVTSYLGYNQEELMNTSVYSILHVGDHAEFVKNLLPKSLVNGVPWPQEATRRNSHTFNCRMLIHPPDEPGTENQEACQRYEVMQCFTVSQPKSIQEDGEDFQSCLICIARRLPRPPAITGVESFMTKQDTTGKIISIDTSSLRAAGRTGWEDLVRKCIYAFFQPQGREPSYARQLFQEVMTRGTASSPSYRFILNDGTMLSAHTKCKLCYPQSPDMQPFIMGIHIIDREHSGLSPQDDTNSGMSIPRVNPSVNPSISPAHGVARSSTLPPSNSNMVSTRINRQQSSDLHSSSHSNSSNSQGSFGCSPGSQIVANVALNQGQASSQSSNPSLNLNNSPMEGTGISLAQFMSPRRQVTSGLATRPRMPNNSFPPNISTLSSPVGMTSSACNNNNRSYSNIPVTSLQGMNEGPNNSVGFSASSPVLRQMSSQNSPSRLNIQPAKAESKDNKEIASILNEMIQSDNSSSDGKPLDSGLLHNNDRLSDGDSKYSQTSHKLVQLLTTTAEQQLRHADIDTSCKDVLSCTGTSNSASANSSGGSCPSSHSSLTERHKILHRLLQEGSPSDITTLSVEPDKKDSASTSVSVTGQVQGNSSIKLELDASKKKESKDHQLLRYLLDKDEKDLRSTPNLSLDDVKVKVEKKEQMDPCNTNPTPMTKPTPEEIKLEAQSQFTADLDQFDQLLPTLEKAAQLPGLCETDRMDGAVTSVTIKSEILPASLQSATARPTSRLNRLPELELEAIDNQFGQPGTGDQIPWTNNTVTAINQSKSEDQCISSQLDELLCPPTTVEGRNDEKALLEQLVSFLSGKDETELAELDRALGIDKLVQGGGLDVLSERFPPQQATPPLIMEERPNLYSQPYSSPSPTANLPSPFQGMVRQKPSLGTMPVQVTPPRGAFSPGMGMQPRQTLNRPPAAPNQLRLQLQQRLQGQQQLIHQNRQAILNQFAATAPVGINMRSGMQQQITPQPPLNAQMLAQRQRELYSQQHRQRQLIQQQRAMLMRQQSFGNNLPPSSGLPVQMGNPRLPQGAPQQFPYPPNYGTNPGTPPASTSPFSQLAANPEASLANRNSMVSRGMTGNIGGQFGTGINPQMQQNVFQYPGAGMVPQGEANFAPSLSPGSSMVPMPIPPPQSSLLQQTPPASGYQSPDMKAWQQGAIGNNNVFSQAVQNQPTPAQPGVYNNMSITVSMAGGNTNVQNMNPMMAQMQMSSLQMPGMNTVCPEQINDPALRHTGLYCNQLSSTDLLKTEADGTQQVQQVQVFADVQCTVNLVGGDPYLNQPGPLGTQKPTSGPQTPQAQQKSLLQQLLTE
Chain of Peroxisome proliferator-activated receptor gamma/Nuclear receptor coactivator 3 (P37231 whole entry): as the sequence (P37231 whole entry) above
Chain of Peroxisome proliferator-activated receptor gamma/Nuclear receptor coactivator 3 (Q9Y6Q9 whole entry, further chain): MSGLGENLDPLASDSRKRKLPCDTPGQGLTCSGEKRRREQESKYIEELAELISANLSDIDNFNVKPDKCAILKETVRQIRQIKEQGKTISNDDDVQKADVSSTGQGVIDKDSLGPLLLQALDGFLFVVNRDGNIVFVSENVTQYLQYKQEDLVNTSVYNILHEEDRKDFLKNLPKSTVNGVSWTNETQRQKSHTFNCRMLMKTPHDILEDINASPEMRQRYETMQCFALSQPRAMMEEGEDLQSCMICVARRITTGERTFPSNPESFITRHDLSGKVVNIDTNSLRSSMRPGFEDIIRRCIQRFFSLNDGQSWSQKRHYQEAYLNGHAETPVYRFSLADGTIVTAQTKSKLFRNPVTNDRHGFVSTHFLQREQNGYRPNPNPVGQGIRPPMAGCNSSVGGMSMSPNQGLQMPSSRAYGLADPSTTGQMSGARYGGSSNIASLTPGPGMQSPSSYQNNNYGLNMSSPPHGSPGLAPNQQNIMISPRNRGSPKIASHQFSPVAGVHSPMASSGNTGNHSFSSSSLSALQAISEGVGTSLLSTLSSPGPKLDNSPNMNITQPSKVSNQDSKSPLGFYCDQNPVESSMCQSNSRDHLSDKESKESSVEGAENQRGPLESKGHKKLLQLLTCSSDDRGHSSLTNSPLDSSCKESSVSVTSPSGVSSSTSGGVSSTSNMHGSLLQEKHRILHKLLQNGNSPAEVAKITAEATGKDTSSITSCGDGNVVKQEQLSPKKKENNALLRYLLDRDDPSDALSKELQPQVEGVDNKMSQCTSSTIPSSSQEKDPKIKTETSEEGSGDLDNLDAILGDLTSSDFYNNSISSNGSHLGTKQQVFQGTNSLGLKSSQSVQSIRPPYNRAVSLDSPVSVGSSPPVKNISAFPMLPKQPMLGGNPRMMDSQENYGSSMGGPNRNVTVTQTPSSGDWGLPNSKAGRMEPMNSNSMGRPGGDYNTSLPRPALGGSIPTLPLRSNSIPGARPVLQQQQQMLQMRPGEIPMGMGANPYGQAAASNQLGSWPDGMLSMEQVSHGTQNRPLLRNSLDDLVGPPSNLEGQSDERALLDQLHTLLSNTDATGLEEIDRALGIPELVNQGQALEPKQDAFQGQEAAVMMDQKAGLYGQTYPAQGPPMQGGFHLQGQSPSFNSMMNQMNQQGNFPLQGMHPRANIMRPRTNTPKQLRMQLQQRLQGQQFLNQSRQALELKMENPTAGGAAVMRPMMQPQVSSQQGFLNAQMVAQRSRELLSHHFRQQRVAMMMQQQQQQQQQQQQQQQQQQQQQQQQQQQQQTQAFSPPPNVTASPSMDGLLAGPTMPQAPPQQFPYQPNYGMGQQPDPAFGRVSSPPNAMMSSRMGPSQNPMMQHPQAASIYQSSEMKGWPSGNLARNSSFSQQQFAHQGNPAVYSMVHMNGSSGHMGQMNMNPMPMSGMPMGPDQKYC

CCN(CC)CCC(c1cc(OC)c(OC)c(OC)c1)c1c(OC)cc(OC)c2c(-c3ccccc3)cc(=O)oc12 (stereo unspecified)
IC50 (Vero): 30.8 µM (active)
IC50 [1]: > 20 µM (inactive)

CCOC(=O)CS(=O)(=O)c1ccc(O)cc1
EC50 [2]: > 79.4 µM (not active)
EC50 [3]: > 79.4 µM (not active)
EC50 [4]: > 79.4 µM (not active)

COc1ccc(C(=O)Nn2c(SCC(=O)N3CCC(C)CC3)nc3ccccc3c2=O)cc1
EC50 [5]: < 0.2 µM (active)
EC50 (HT-1080): > 50 µM (not active)

Cc1cc(O)c(Oc2cc(C)cc(O)c2O)c(O)c1
EC50 [6]: 43.9 µM (active)
EC50 [7]: 12.9 µM (active)
IC50 [8]: 39.5 µM (active)
IC50 (Protein Tat): > 100 µM (active)

O=C1NC(=S)NC(=O)C1=NNc1ccc2c(c1)OCCO2
CC50 [9]: > 40 µM (active)

CCCCCC(=O)NC(=S)Nc1ccc(Br)cc1C
IC50 [10]: 7.66 µM (active)
IC50 [11]: 6.11 µM (active)

O=C(Nc1sc2c(c1C(=O)O)CCCCC2)c1ccccc1
IC50 [12]: 28.4 µM (active)

CN(C)c1ccc(C(=C2C=CC(=[N+](C)C)C=C2)c2ccccc2)cc1
IC50 [13]: 0.00922 µM (active)
IC50 [14]: 0.118 µM (active)
IC50 [15]: 0.0179 µM (active)
IC50 [16]: 0.0354 µM (active)
IC50 [17]: 0.161 µM (active)
IC50 [18]: 0.00982 µM (active)
IC50 [19]: 0.0218 µM (active)
IC50 [20]: 0.00983 µM (active)
AC50 [21]: 7.94 µM (inconclusive)

CN(C(=O)c1ccco1)c1nc2c(s1)CCCC2
EC50 [5]: > 100 µM (not active)
EC50 (HT-1080): > 50 µM (not active)

COc1ccccc1-c1cc(C(=O)N2CCc3ccccc3C2)c2ccccc2n1
IC50 [12]: 28.8 µM (active)
EC50 [22]: 3.06 µM (active)

Cc1ccccc1OCC(=O)N/N=C/c1cccc(Oc2ccc([N+](=O)[O-])cc2[N+](=O)[O-])c1
CC50 [9]: 33.9 µM (active)

COc1ccc(/C=N/n2c(N)nc3ccccc32)cc1OC
IC50 [23]: 16.6 µM (not active)

O=C(O)c1[nH]c2ccc(Cl)cc2c1CC(=O)N1CCN(C(=O)c2ccco2)CC1
IC50 [24]: > 100 µM (active)

CN1CCc2nc3sc(C(=O)C45CC6CC(CC(C6)C4)C5)c(N)c3cc2C1
EC50 [25]: 20.5 µM (active)
IC50 [26]: 13.8 µM (not active)
EC50 [27]: 27.4 µM (active)
AC50 [28]: 1.82 µM (active)

CCCCCOc1ccc(/C=c2\sc3nc(=O)c(-c4ccccc4)nn3c2=O)cc1OC
IC50 (NS3): > 36.3 µM (not active)

CC1(C)Cc2c(C#N)c(NCCc3ccccc3)nc(-c3ccco3)c2CO1
IC50 (NS3): 35.3 µM (not active)

Cc1cc(/C=C2/NC(=O)N(Cc3ccccc3F)C2=O)c(C)n1C
EC50 [2]: > 79.4 µM (not active)
EC50 [3]: > 79.4 µM (not active)
EC50 [4]: > 79.4 µM (not active)

O=C1C(/C=N/Cc2cccnc2)=C(O)c2ccccc21
IC50 [23]: 32.1 µM (not active)

Cc1cccc(CSC2=NCCN2C(=O)c2ccc(Br)o2)c1
IC50 [10]: < 12 µM (not active)
IC50 [11]: 12.8 µM (not active)

O=C(NCCCN1CCOCC1)C1CC(=O)N(CCc2ccccc2)C1 (stereo unspecified)
IC50 [24]: > 100 µM (active)

CCOc1ccc(NC(=O)c2c(NC(=O)CN3CCN(C)CC3)sc3c2CCC3)cc1
IC50 (Vero): 18.3 µM (active)

CN1CCN(C(=O)CSc2nc(-c3cccs3)ccc2C#N)CC1
IC50 (Protein Tat): > 100 µM (active)
